Test results: PubChem BioAssay (NCI)
Several values for one entry are separate records, joined by “and”; a condition that tells them apart may be missing. Equal values may be shown once.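 Cells were grown in 96-well plates and exposed to each compound for 48 hours at five concentrations; endpoints were interpolated linearly between bracketing concentrations, or set to the highest concentration if not reached. GI50 = concentration required for 50% inhibition of growth. At the TGI there is no net growth.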

What was measured:
Test in all cases: NCI tumour cell line growth inhibition, 48 h
ACHN renal = tested on: ACHN renal
CCRF-CEM leukemia = tested on: CCRF-CEM leukemia
HOP-92 NSCLC = tested on: HOP-92 NSCLC
NCI-H460 lung = tested on: NCI-H460 lung
OVCAR-5 ovarian = tested on: OVCAR-5 ovarian
SF-268 CNS = tested on: SF-268 CNS
SF-539 CNS = tested on: SF-539 CNS
SK-MEL-5 melanoma = tested on: SK-MEL-5 melanoma
TK-10 renal = tested on: TK-10 renal
MALME-3M melanoma = tested on: MALME-3M melanoma

Structure (SMILES) | TGI (ACHN renal) [µM] | TGI (CCRF-CEM leukemia) | TGI (HOP-92 NSCLC) [µM] | TGI (NCI-H460 lung) | TGI (OVCAR-5 ovarian) [µM] | TGI (SF-268 CNS) [µM] | TGI (SF-539 CNS) | TGI (SK-MEL-5 melanoma) | TGI (TK-10 renal) [µM] | TGI (MALME-3M melanoma) | GI50 (ACHN renal) | GI50 (HOP-92 NSCLC) [µM] | GI50 (MALME-3M melanoma) | GI50 (NCI-H460 lung) | GI50 (OVCAR-5 ovarian) | GI50 (SF-268 CNS) [µM] | GI50 (SF-539 CNS) | GI50 (SK-MEL-5 melanoma) [µM] | GI50 (TK-10 renal) [µM] | GI50 (CCRF-CEM leukemia) [µM]
COc1cc([C@H]2OC[C@@H]3C(c4cc(OC)c5c(c4)OCO5)OC[C@H]23)cc(OC)c1OC (some centres not stated) | > 100 | > 100 µM | > 100 | > 100 µM | > 100 | > 100 | > 100 µM | 44.9 µM | > 100 | – | – | – | – | – | – | – | – | – | – | –
C=C1C(=O)C23C(O)CC4C(C)(C)CCC(O)C4(C)C2CC(OC(C)=O)C1[C@H]3O (some centres not stated) | 8.94 | 2.7 µM | 7.01 | 6.65 µM | 21.5 | 22.1 | 9.45 µM | – | 3.72 | 9.42 µM | – | – | – | – | – | – | – | – | – | –
O=C1c2c(c3c4ccccc4n(CC4CO4)c3c3[nH]c4ccccc4c23)C(=O)N1Cc1ccccc1 (configuration not stated) | – | > 100 µM | > 100 | > 100 µM | > 100 | > 100 | > 100 µM | – | > 100 | > 100 µM | – | – | – | – | – | – | – | – | – | –
CCc1ccc([OH2+])c(C(=O)[O-])c1.CCc1ccc([OH2+])c(C(=O)[O-])c1.CCc1ccc([OH2+])c(C(=O)[O-])c1.CCc1ccc([OH2+])c(C(=O)[O-])c1.[Cu+2].[Cu+2] | > 100 | – | > 100 | > 100 µM | 70.2 | > 100 | > 100 µM | 42.9 µM | > 100 | > 100 µM | > 100 µM | > 95.9 | > 100 µM | 52.6 µM | 32.3 µM | > 100 | > 100 µM | 17.6 | > 85.8 | –
CC1(C)C2CC(=O)C1(C)C(OCc1ccccc1)C2Br (configuration not stated) | > 100 | 49.1 µM and 56.1 µM | – | 43.5 µM and > 100 µM | > 100 | > 100 | 68.4 µM and > 100 µM | 29.3 µM and > 100 µM | > 100 | 36.9 µM and > 100 µM | 38.5 µM and 93.9 µM | – | 19.1 µM and 48.6 µM | 20.2 µM and 48.5 µM | 32.2 µM and > 100 µM | – | 25.9 µM and > 100 µM | – | – | –
NN=C1/C(=C\c2ccccc2)CCC/C1=C/c1ccccc1 | > 100 | 45 µM | 76.7 | > 100 µM | > 100 | > 100 | > 100 µM | – | > 100 | 81.1 µM | – | – | – | – | – | – | – | – | – | –
COc1ccc(/C=C\c2cc(OC)c(OC)c(OC)c2)cc1NC(=O)/C=C/c1cc(OC)c(OC)c(OC)c1 | > 100 | > 100 µM | > 100 | > 100 µM | > 100 | > 100 | > 100 µM | 6.73 µM | > 100 | – | 6.76 µM | 3.6 | – | 3.61 µM | 5.74 µM | > 100 | 3.95 µM | 2.21 | > 100 | 4.16
C=C(C)[C@@H]1CC[C@]2(C(=O)O)CC[C@]3(C)[C@H](CC[C@@H]4[C@@]5(C)CCC(N)C(C)(C)[C@@H]5CC[C@]43C)[C@@H]12 (some centres not stated) | 5.32 | 5.53 µM | – | > 100 µM | – | – | 3.02 µM | – | – | 3.22 µM | 2.2 µM | – | 1.56 µM | 3.12 µM | – | – | 1.59 µM | – | – | 2.11
COC1=CC(=O)C2(C=C1OC)OC[C@H]1Oc3c(ccc4c3C=CC(C)(C)O4)C(=O)[C@H]12 (some centres not stated) | > 100 | > 100 µM | 44.3 | > 100 µM | > 100 | – | > 100 µM | – | > 100 | > 100 µM | – | – | – | – | – | – | – | – | – | –
O=C(O)CCCCCNCc1cc2cc3c(cc2c2cc(OCc4ccccc4)ccc12)OCO3 | 13.2 | – | 2.98 | 3.33 µM | 5.23 | – | 3.62 µM | 3.3 µM | 5.99 | 3.57 µM | 3.48 µM | 1.38 | 1.88 µM | 1.7 µM | 2.33 µM | – | 1.9 µM | 1.65 | 2.63 | –
CC1=Nc2ccccc2S/C1=C1/C=NC(=NC#N)N=C1C(=O)Nc1cccc(Cl)c1 | > 100 | > 100 µM | – | > 100 µM | > 100 | > 100 | > 100 µM | > 100 µM | > 100 | > 100 µM | – | – | – | – | – | – | – | – | – | –
CC(=O)OC1(C(C)=O)CC2(c3ccccc3)OC1(c1ccccc1)c1ccccc12 (configuration not stated) | > 100 | – | > 100 | > 100 µM | > 100 | > 100 | > 100 µM | 8.53 µM | > 100 | > 100 µM | – | – | – | – | – | – | – | – | – | –
CC(=O)[CH-]C(=O)c1ccccc1.CC(=O)[CH-]C(=O)c1ccccc1.Cl.[O-]CCc1ccccn1.[O-]CCc1ccccn1.[Ti+4] | > 100 | > 100 µM | – | – | > 100 | 75.4 | 88 µM | 53.6 µM | 93.3 | 44.1 µM | 33.4 µM | – | 18.7 µM | – | 43.3 µM | 25.8 | 29.8 µM | 20 | 28.7 | 15.9
CN1C/C(=C\c2ccccc2)C2=NN(C(N)=S)[C@H](c3ccccc3)[C@@H]2C1 | > 100 | > 100 µM | > 100 | > 100 µM | > 100 | > 100 | > 100 µM | – | > 100 | > 100 µM | – | – | – | – | – | – | – | – | – | –
O=C(CC1(O)C(=O)Nc2ccccc21)c1cccc(O)c1 (configuration not stated) | > 100 | – | > 100 | > 100 µM | > 100 | > 100 | > 100 µM | > 100 µM | > 100 | > 100 µM | – | – | – | – | – | – | – | – | – | –
O=C1N(c2ccc(Cl)cc2)C(=O)C2(SC=NN2Cc2ccccc2)N1c1ccc(Cl)cc1 (configuration not stated) | > 100 | > 100 µM | > 100 | > 100 µM | – | > 100 | > 100 µM | > 100 µM | > 100 | > 100 µM | – | – | – | – | – | – | – | – | – | –
COc1cc2c(c3oc4c(O)cccc4c(=O)c13)CC(C(C)(O)CCl)O2 (configuration not stated) | 1.87 | – | 10.5 | 13.2 µM | 34 | 3.33 | 2.2 µM | 1.5 µM | 41.8 | 8.12 µM | – | – | – | – | – | – | – | – | – | –
COc1ccc2c(c1O)[C@@]13CCCC=C1[C@@H](C2)N(C)CC3 | > 100 | > 100 µM | > 100 | > 100 µM | > 100 | > 100 | – | > 100 µM | > 100 | 3.35 µM | – | – | – | – | – | – | – | – | – | –
CCCC(O)c1ccc2[nH]c3c(C)cc([N+](=O)[O-])c(C)c3c2c1 (configuration not stated) | > 100 | > 100 µM | – | > 100 µM | > 100 | > 100 | > 100 µM | > 100 µM | > 100 | > 100 µM | – | – | – | – | – | – | – | – | – | –
